We go through 32 molecules from the METLIN SMRT retention time set (Domingo-Almenara et al. 2019).

Molecules are shown by their SMILES.

The nature of this data set: gradient 5% acetonitrile 3 min, to 50% in 2 min, to 85% in 15 min, held 3 min, 100 µL/min. The note with it: column: Zorbax Extend-C18 2.1 x 50 mm; eluents: water / acetonitrile, 0.1% formic acid. In outline: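 A Zorbax Extend-C18 column (2.1 × 50 mm, 1.8 μm) run at 100 μL/min with water and acetonitrile, both containing 0.1% formic acid, separated mixtures of ~100 pure standards. The HPLC was coupled to a quadrupole time-of-flight mass spectrometer operated in positive and negative ionization mode, with dead and dwell volumes of 40 μL and 900 μL. Each retention time was taken from a computationally picked adduct peak that was then manually inspected.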
In turn, `CC(C)c1nnc(-c2cccnc2N2CCN(C(=O)C3CCCO3)CC2)o1` (configuration not stated) yielded an RP-LC retention time of 675 s.
As for `Cc1cc(C(=O)N2CCN(CCNC(=O)c3ccsc3)CC2)c(C)o1`, the RP-LC retention time was 554 s.
Consider `CCCCNc1nc(NCC)nc(-n2cnc(SC)n2)n1`, for which the RP-LC retention time was 880 s.
`CN1c2cc(C(=O)NCc3ccc(F)cc3Cl)ccc2C(=O)N2CCCCC21` (configuration not stated): the RP-LC retention time was 833 s.
The figure for `O=C(NCc1ccco1)C1CCCN(C(=O)NC2CC2)C1` (configuration not stated) is 604 s; for `O=C(CN1CCN(Cc2ccccc2)C1=O)N1CCN(c2ccccc2F)CC1` it is 824 s; for `CN1C2CC(OC(=O)[C@H](CO)c3ccccc3)CC1C1OC12` (some centres not stated) it is 581 s.
`C=C1C(=O)OC2CC1C(OC(C)=O)C/C(C)=C/CC/C(C)=C\CCC2(C)O` (configuration not stated) registered an RP-LC retention time of 917 s.
Turning to `O=C1N(c2cccc(F)c2)C(c2ccccc2)C12CCN(Cc1cccc(F)c1O)CC2` (configuration not stated), the RP-LC retention time turned out to be 774 s.
Under `Cc1noc([C@@H]2CN(Cc3c(F)cccc3F)C[C@H]2CO)n1` stands 562 s; under `O=C1CCC(CCNS(=O)(=O)c2ccc3c(c2)CCCC3)CCN1CC1CC1` (configuration not stated), 938 s.
In the case of `O=S(=O)(Nc1cccc(Cl)c1)c1ccc(-c2nnc(C3CCC3)o2)o1`, the RP-LC retention time amounted to 967 s.
The figure for `Cc1ccc(C)c(S(=O)(=O)N2CCC(N3CCN(Cc4ccccc4)C(=O)C3=O)CC2)c1` is 861 s.
`CC(=O)Nc1ccc(CC(=O)NC(C(=O)N2CCCc3ccccc32)c2ccccc2)cc1` (configuration not stated) came in with an RP-LC retention time of 803 s.
As to `Fc1ccc(C2Cn3nnc(-c4nc(-c5ccc(OC(F)(F)F)cc5)no4)c3CO2)cc1` (configuration not stated), the RP-LC retention time stood at 1250 s.
In turn, `CCSc1nccc2c1ccn2CC(=O)NCc1ccc(OC)cc1OC` yielded an RP-LC retention time of 651 s.
Take `CCNC(=O)Nc1ccc2c(c1)CN(CC1CCCCC1)CCO2`: the RP-LC retention time worked out at 610 s.
The figure for `O=C(Nc1cccc(F)c1)N1CCC(n2c(-c3ccco3)nc3cccnc32)C1` (configuration not stated) is 767 s; for `Cc1sc2cc(C(=O)N3CCN(c4ccccn4)CC3)[nH]c2c1CN1CCCC1` it is 558 s; for `COc1cc2c(cc1OC)C(C(=O)N1CCN(c3ccccn3)CC1)C(c1cccnc1)N(C)C2=O` (configuration not stated) it is 1230 s.
Under `Cc1nc(OCC(=O)NC2CCCCC2)c2c(-c3cccc(F)c3)noc2n1` stands 990 s; under `Cc1ccc(C)c(NC(=O)N2c3ccccc3CC2c2nc(C3CC3)no2)c1` (configuration not stated), 1060 s; under `Cc1cc(=O)n(CC(=O)Nc2ccc(Cl)cc2)c(-c2ccc(F)cc2)n1`, 1120 s.
The figure for `COC[C@@H]1CN(Cc2ccc(F)c(Cl)c2)C[C@H]1c1nc(C)no1` is 580 s; for `Cc1cc(=O)n(CC(=O)Nc2ccccc2F)c(N2CCCC2)n1` it is 616 s; for `CCOC(=O)c1cccc(NC(=O)NC2CCN(c3ccccc3)C2=O)c1` (configuration not stated) it is 683 s.
Molecule `O=C(COc1ccc(Cl)cc1Cl)Nc1nc(-c2ccc(F)cc2)cs1` gave an RP-LC retention time of 1250 s.
For the molecule `O=C(N[C@H]1C[C@@H]2C[C@H]1CN2C(=O)c1ccc(Cl)s1)c1cccnc1`, the RP-LC retention time is 659 s.
Under `O=C(NCCCN1CCOCC1)C1c2ccccc2C(=O)N(C2CCCC2)C1c1cccs1` (configuration not stated) stands 646 s.
Take `Cc1ccc(-c2ccc(=O)n(CCc3nc(-c4ccc5c(c4)OCO5)no3)n2)cc1`: the RP-LC retention time turned out to be 711 s.
With `COc1cc2c(cc1OC)C(=O)C(CC1CCN(Cc3ccccc3)CC1)C2` (configuration not stated), the RP-LC retention time was 690 s.
Consider `Cc1nnc(-c2cn(CC(=O)Nc3ccc(Cl)cc3)c3ccccc23)o1`, for which the RP-LC retention time was 856 s.
